# Measured values taken from patent US11485987B2, “Methods for inducing bioorthogonal reactivity” (University of Delaware, priority 2015, dated 2022).
# Positions count from the first letter of the chain named.
# How the values were obtained:
# [1] = Tetrazine hydrolytic stability in PBS; format: physicochemical; settings: 800 μM, PBS buffer, 25° C.
# From the text: A challenge to the development of catalytic methods for turning on the tetrazine ligation was the identification of a DHTz/Tz pair that would be stable in both oxidation states (FIG. 1, panel B). For most redox couples, either the DHTz is too readily oxidized in air (e.g., 1), or the Tz is too reactive toward water and other nucleophiles (e.g., 2). The inventors show here that the dipyridyl DHTz/Tz pair (3/4) has good stability in both states (FIG. 1, panel C). Dihydrotetrazines 3 are highly resistant toward background oxidation in organic solvents, and a number of derivatives have been synthesized and shown stable even to silica gel chromatography. […] Aqueous solutions of 3a were handled in glassware that had been first rinsed with 2.0 mM EDTA in PBS to remove adventitious metal impurities. After standing in the dark at 25° C. in PBS buffer, a solution of 3a was monitored by UV-vis and shown to retain 99 and 96% of the DHTz oxidation state over 30 min and 2.5 hours respectively. […] In PBS containing 10% mouse serum, 90% of 3a was retained in the DHTz oxidation state after 1 h. […]
# Solutions (1 mL) containing 4a (800 μM) in PBS buffer were prepared in cuvettes from stock solutions. Tetrazine concentration was measured by recording the absorbance at 525 nm every 20 minutes while holding the cuvette at either 25 for 24 hours.
# [2] = NIR photocatalytic oxidation/Diels-Alder/payload release (methylene blue, 660 nm LED)
# Experimental: Encouraged by calculation, the inventors synthesized the compound 7, where p-nitrophenol serves as a model payload that can be readily monitored by UV and NMR (FIG. 7, panel A). To study the Diels-Alder/elimination sequence […], the inventors chose to oxidize 7 with Dess-Martin periodinane—a reagent that instantaneously oxidizes dihydrotetrazines to tetrazines. […] Upon LED irradiation (660 nm, 9.1 mW/cm^2) of 7 (28 μM) in MeOH in the presence of catalytic methylene blue (7 μM), complete oxidation/Diels-Alder/payload release within 15 minutes was observed (FIG. 7, panel B). In this photocatalytic reaction, aliquots by ESI-MS were analyzed, and intermediates 8 and 9 were not detected.
# […]. […] The reaction of 12 to produce 13 and 14 could also be promoted by irradiating a solution of 12 in 60% H2O/MeOH for 30 min with a 660 nm LED light source in the presence of catalytic amounts of methylene blue with monitoring by UV-Vis. The complete conversion to product 13 could be observed by UV-vis within 30 minutes.
# APEX2 (SEQ ID NO:1) = molecular target: T1, APEX2 (SEQ ID NO:1) (Glycine max, UniProt Q43758, A134P/E112K/K14D/W41F); assay: Oxidation of DHT by APEX2, UV-Vis initial rates and kinetic parameters; format: biochemical; settings: PBS, 100 μM EDTA, first 100 s; for Initial rate of oxidation of DHT by APEX2 (SEQ ID NO: 1) + SOD: SOD 1 μM
# T1 sequence (Q43758 1-250 A134P/E112K/K14D/W41F): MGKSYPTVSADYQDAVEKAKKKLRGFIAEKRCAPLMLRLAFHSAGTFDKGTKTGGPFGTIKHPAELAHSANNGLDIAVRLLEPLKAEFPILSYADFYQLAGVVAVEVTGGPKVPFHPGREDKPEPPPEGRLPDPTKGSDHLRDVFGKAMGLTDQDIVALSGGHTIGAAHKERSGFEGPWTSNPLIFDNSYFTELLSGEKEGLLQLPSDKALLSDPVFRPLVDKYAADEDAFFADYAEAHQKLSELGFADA
# Experimental: (§1) UV-Vis and fluorescence measurements were conducted in quartz cuvettes. All reactions were conducted in phosphate buffered saline (PBS) containing 100 μM EDTA with a pH=7.4. The PBS was prepared by adding 25 mM phosphate salts (Na2HPO4 and NaH2PO4), 100 mM NaCl, 100 μM EDTA to DI water. EDTA was added to quench free metals that can oxidize DHT. The buffer was pH adjusted to 7.4 using 1 mM HCl and 1 mM NaOH. UV experiments were stirred at 25° C. in a temperature-controlled cuvette holder of the spectrophotometer. Solutions of 15 or 16 were prepared from methanol stock solutions.
# 15 or 16 (60 μM) from methanol stock solutions was added to PBS containing 100 μM EDTA. After 10s, APEX2 (SEQ ID NO:1) (275 nM) was dosed in and oxidation was monitored at 325 nm for 15 and 285 nm for 16 at 60s intervals (FIG. 10B-C).
# 16 (15 μM) DHT from methanol stock solutions was added to PBS containing 100 μM EDTA. After 10s, APEX2 (SEQ ID NO:1) (275 nM) or HRP (15 nM) was dosed in and oxidation was monitored at 285 nm at 10s intervals (FIG. 10D)
# (§2) SOD (1 μM) was added to PBS containing 100 μM EDTA. 15 or 16 (60 μM) was added from methanol stock solutions. After 10s, APEX2 (SEQ ID NO:1) or F41A APEX2 (275 nM) was dosed in and oxidation was monitored at 325 nm for 15 and 285 nm for 16 at 60s intervals.
# (§3) The initial rate of oxidation was calculated from the first 100 seconds after APEX2 (SEQ ID NO:1) or F41A APEX2 was added ([…]). In the assays where SOD was added, SOD (1 μM) was added to PBS containing 100 μM EDTA and 15 or 16 was dosed in. 10 seconds later, APEX2 (SEQ ID NO:1) or F41A APEX2 ([…]) was added and the rate of oxidation was calculated from the first 100 seconds after APEX2 (SEQ ID NO:1) or F41A APEX2 ([…]) addition. The initial rate of oxidation was adjusted to background oxidation of DHT in PBS with 100 μM EDTA. Kinetic parameters (Table 2) were determined using GraphPad's Prism 6 software from the data presented below (Table 3-4).
# F41A APEX2 = molecular target: T2, F41A APEX2 (Glycine max, UniProt Q43758, A134P/E112K/K14D/W41A); assay: Oxidation of DHT by F41A APEX2, UV-Vis initial rates and kinetic parameters; format: biochemical; settings: for Initial rate of oxidation of DHT by F41A APEX2 + SOD: SOD 1 μM, PBS, 100 μM EDTA, first 100 s
# T2 sequence (Q43758 1-250 A134P/E112K/K14D/W41A): T1 sequence (Q43758 1-250 A134P/E112K/K14D/W41F) with F41A
# Experimental: as §1, §2, §3
smiles,measurement,setting,value
"O=C(O)CCC(=O)Nc1ccc(-c2nnc(-c3ccccn3)nn2)nc1 [4a, 4-oxo-4-((6-(6-(pyridin-2-yl)-1,2,4,5-tetrazin-3-yl)pyridin-3-yl)amino)butanoic Acid]",tetrazine fidelity,[1]; 2 h,98%
same,tetrazine fidelity,[1]; 24 h,83%
"CCCCN(C(=O)/C=C/Oc1ccc([N+](=O)[O-])cc1)c1cccnc1C1=NNC(c2ccccn2)=NN1 [compound 7, (E)-N-butyl-3-(4-nitrophenoxy)-N-(2-(6-(pyridin-2-yl)-1,4-dihydro-1,2,4,5-tetrazin-3-yl)pyridin-3-yl)acrylamide]",time to complete oxidation/Diels-Alder/payload release,"[2]; 28 μM in MeOH, methylene blue 7 μM, LED 660 nm 9.1 mW/cm^2",≤ 15 min
"COCCOCCOCCOCCOCCOCCOCCOCCOc1ccc(C2=NNC(c3ncccc3N(C)C(=O)/C=C/Oc3ccc(N(CCCl)CCCl)cc3)=NN2)nc1 [compound 12, (E)-N-(2-(6-(5-(2,5,8,11,14,17,20,23-octaoxapentacosan-25-yloxy)pyridin-2-yl)-1,4-dihydro-1,2,4,5-tetrazin-3-yl)pyridin-3-yl)-3-(4-(bis(2-chloroethyl)amino)phenoxy)-N-methylacrylamide]",time to complete conversion to product 13,"[2]; 60% H2O/MeOH, 660 nm LED, catalytic methylene blue, UV-vis",≤ 30 min
CCCCNC(=O)C1=NNC(c2ccccn2)=NN1 [compound 16],Initial rate of oxidation of DHT by APEX2 (SEQ ID NO: 1) + SOD,APEX2 (SEQ ID NO:1); DHT 4 μM,0.429 +/− 0.022 ×10^−8 M/s
same,Initial rate of oxidation of DHT by APEX2 (SEQ ID NO: 1),APEX2 (SEQ ID NO:1); DHT 5 μM,0.319 +/− 0.056 ×10^−8 M/s
same,Initial rate of oxidation of DHT by APEX2 (SEQ ID NO: 1),APEX2 (SEQ ID NO:1); DHT 10 μM,0.673 +/− 0.002 ×10^−8 M/s
same,Initial rate of oxidation of DHT by APEX2 (SEQ ID NO: 1) + SOD,APEX2 (SEQ ID NO:1); DHT 10 μM,1.011 +/− 0.170 ×10^−8 M/s
same,Initial rate of oxidation of DHT by APEX2 (SEQ ID NO: 1),APEX2 (SEQ ID NO:1); DHT 15 μM,0.810 +/− 0.081 ×10^−8 M/s
same,Initial rate of oxidation of DHT by APEX2 (SEQ ID NO: 1) + SOD,APEX2 (SEQ ID NO:1); DHT 15 μM,1.662 +/− 0.004 ×10^−8 M/s
same,Initial rate of oxidation of DHT by APEX2 (SEQ ID NO: 1),APEX2 (SEQ ID NO:1); DHT 20 μM,1.169 +/− 0.095 ×10^−8 M/s
same,Initial rate of oxidation of DHT by APEX2 (SEQ ID NO: 1),APEX2 (SEQ ID NO:1); DHT 30 μM,1.131 +/− 0.182 ×10^−8 M/s
same,Initial rate of oxidation of DHT by APEX2 (SEQ ID NO: 1) + SOD,APEX2 (SEQ ID NO:1); DHT 30 μM,2.073 +/− 0.046 ×10^−8 M/s
same,Initial rate of oxidation of DHT by APEX2 (SEQ ID NO: 1),APEX2 (SEQ ID NO:1); DHT 40 μM,1.427 +/− 0.265 ×10^−8 M/s
same,Initial rate of oxidation of DHT by APEX2 (SEQ ID NO: 1) + SOD,APEX2 (SEQ ID NO:1); DHT 40 μM,2.379 +/− 0.350 ×10^−8 M/s
same,Initial rate of oxidation of DHT by APEX2 (SEQ ID NO: 1),APEX2 (SEQ ID NO:1); DHT 45 μM,1.376 +/− 0.071 ×10^−8 M/s
same,Initial rate of oxidation of DHT by APEX2 (SEQ ID NO: 1) + SOD,APEX2 (SEQ ID NO:1); DHT 45 μM,2.234 +/− 0.088 ×10^−8 M/s
same,Initial rate of oxidation of DHT by APEX2 (SEQ ID NO: 1),APEX2 (SEQ ID NO:1); DHT 50 μM,1.438 +/− 0.017 ×10^−8 M/s
same,Initial rate of oxidation of DHT by APEX2 (SEQ ID NO: 1) + SOD,APEX2 (SEQ ID NO:1); DHT 50 μM,2.149 +/− 0.009 ×10^−8 M/s
same,Initial rate of oxidation of DHT by APEX2 (SEQ ID NO: 1) + SOD,APEX2 (SEQ ID NO:1); DHT 55 μM,2.503 +/− 0.210 ×10^−8 M/s
same,Initial rate of oxidation of DHT by APEX2 (SEQ ID NO: 1),APEX2 (SEQ ID NO:1); DHT 60 μM,1.396 +/− 0.123 ×10^−8 M/s
same,Initial rate of oxidation of DHT by APEX2 (SEQ ID NO: 1) + SOD,APEX2 (SEQ ID NO:1); DHT 60 μM,2.376 +/− 0.450 ×10^−8 M/s
same,Initial rate of oxidation of DHT by APEX2 (SEQ ID NO: 1) + SOD,APEX2 (SEQ ID NO:1); DHT 70 μM,2.746 +/− 0.180 ×10^−8 M/s
same,Initial rate of oxidation of DHT by APEX2 (SEQ ID NO: 1),APEX2 (SEQ ID NO:1); DHT 75 μM,1.766 +/− 0.080 ×10^−8 M/s
same,Initial rate of oxidation of DHT by APEX2 (SEQ ID NO: 1),APEX2 (SEQ ID NO:1); DHT 85 μM,1.695 +/− 0.114 ×10^−8 M/s
same,Initial rate of oxidation of DHT by APEX2 (SEQ ID NO: 1) + SOD,APEX2 (SEQ ID NO:1); DHT 90 μM,2.491 +/− 0.032 ×10^−8 M/s
same,Initial rate of oxidation of DHT by F41A APEX2 + SOD,F41A APEX2; DHT 5 μM,0.334 +/− 0.010 ×10^−8 M/s
same,Initial rate of oxidation of DHT by F41A APEX2 + SOD,F41A APEX2; DHT 10 μM,0.642 +/− 0.035 ×10^−8 M/s
same,Initial rate of oxidation of DHT by F41A APEX2 + SOD,F41A APEX2; DHT 15 μM,1.124 +/− 0.034 ×10^−8 M/s
same,Initial rate of oxidation of DHT by F41A APEX2 + SOD,F41A APEX2; DHT 20 μM,2.132 +/− 0.035 ×10^−8 M/s
same,Initial rate of oxidation of DHT by F41A APEX2 + SOD,F41A APEX2; DHT 25 μM,2.568 +/− 0.131 ×10^−8 M/s
same,Initial rate of oxidation of DHT by F41A APEX2 + SOD,F41A APEX2; DHT 30 μM,2.129 +/− 0.076 ×10^−8 M/s
same,Initial rate of oxidation of DHT by F41A APEX2 + SOD,F41A APEX2; DHT 35 μM,3.078 +/− 0.025 ×10^−8 M/s
same,Initial rate of oxidation of DHT by F41A APEX2 + SOD,F41A APEX2; DHT 40 μM,2.964 +/− 0.011 ×10^−8 M/s
same,Initial rate of oxidation of DHT by F41A APEX2 + SOD,F41A APEX2; DHT 50 μM,3.867 +/− 0.049 ×10^−8 M/s
same,Initial rate of oxidation of DHT by F41A APEX2 + SOD,F41A APEX2; DHT 55 μM,3.709 +/− 0.336 ×10^−8 M/s
same,Initial rate of oxidation of DHT by F41A APEX2 + SOD,F41A APEX2; DHT 75 μM,4.549 +/− 0.150 ×10^−8 M/s
same,Initial rate of oxidation of DHT by F41A APEX2 + SOD,F41A APEX2; DHT 85 μM,5.098 +/− 0.571 ×10^−8 M/s
same,factor of increase of rate of catalysis versus APEX2 (SEQ ID NO:1),F41A APEX2; F41A APEX2 mutant with SOD,5
